Measured values taken from patent publication US20220127255A1, “HERBICIDAL COMPOUNDS” (SYNGENTA CROP PROTECTION AG, priority 2019, published 2022).
Counter-ions that a name gives are not always drawn. Like-named read-outs stand apart in the source and are kept apart here.

Columns and labels:
Assay in all cases: Post-emergence efficacy, glasshouse spray test
Assay type in all cases: in vivo
Setaria faberi (SETFA) = settings: 312 h, read-out: Control of weed species SETFA after post-emergence application (100=total damage to plant; 0=no damage to plant)
Experimental: (§1) Seeds of a variety of test species were sown in standard soil in pots. After cultivation for 14 days (post-emergence) under controlled conditions in a glasshouse (at 24/16° C., day/night; 14 hours light; 65% humidity), the plants were sprayed with an aqueous spray solution derived from the dissolution of the technical active ingredient formula (I) in a small amount of acetone and a special solvent and emulsifier mixture referred to as IF50 (11.12% Emulsogen EL360 TM+44.44% N-methylpyrrolidone+44.44% Dowanol DPM glycol ether), to create a 50 g/l solution which was then diluted to required concentration using 0.25% or 1% Empicol ESC70 (Sodium lauryl ether sulphate)+1% ammonium sulphate as diluent.
(§2) The test plants were then grown in a glasshouse under controlled conditions (at 24/16° C., day/night; 14 hours light; 65% humidity) and watered twice daily. After 13 days the test was evaluated (100=total damage to plant; 0=no damage to plant).
(§3) Ipomoea hederacea (IPOHE), Euphorbia heterophylla (EPHHL), Chenopodium album (CHEAL), Amaranthus palmeri (AMAPA), Lolium perenne (LOLPE), Digitaria sanguinalis (DIGSA), Eleusine indica (ELEIN), Echinochloa crus-galli (ECHCG), Setaria faberi (SETFA)

[1] = test system: Ipomoea hederacea (IPOHE); settings: 312 h, read-out: Control of weed species IPOHE after post-emergence application (100=total damage to plant; 0=no damage to plant)
Experimental: as §1, §2, §3

[2] = test system: Euphorbia heterophylla (EPHHL); settings: 312 h, read-out: Control of weed species EPHHL after post-emergence application (100=total damage to plant; 0=no damage to plant)
Experimental: as §1, §2, §3

[3] = test system: Digitaria sanguinalis (DIGSA); settings: 312 h, read-out: Control of weed species DIGSA after post-emergence application (100=total damage to plant; 0=no damage to plant)
Experimental: as §1, §2, §3

[4] = test system: Amaranthus palmeri (AMAPA); settings: 312 h, read-out: Control of weed species AMAPA after post-emergence application (100=total damage to plant; 0=no damage to plant)
Experimental: as §1, §2, §3

Eleusine indica (ELEIN) = settings: 312 h, read-out: Control of weed species ELEIN after post-emergence application (100=total damage to plant; 0=no damage to plant)
Experimental: as §1, §2, §3

[5] = test system: Echinochloa crus-galli (ECHCG); settings: 312 h, read-out: Control of weed species ECHCG after post-emergence application (100=total damage to plant; 0=no damage to plant)
Experimental: as §1, §2, §3

[6] = test system: Chenopodium album (CHEAL); settings: 312 h, read-out: Control of weed species CHEAL after post-emergence application (100=total damage to plant; 0=no damage to plant)
Experimental: as §1, §2, §3

Lolium perenne (LOLPE) = settings: 312 h, read-out: Control of weed species LOLPE after post-emergence application (100=total damage to plant; 0=no damage to plant)
Experimental: as §1, §2, §3

[7] = 500 g/Ha, evaluated after 13 days
[8] = 130 g/Ha, evaluated after 13 days

Compound	pest or weed control at 500 g/ha (Setaria faberi (SETFA); [7])	pest or weed control at 500 g/ha [1, 7]	pest or weed control at 500 g/ha [2, 7]	pest or weed control at 500 g/ha [3, 7]	pest or weed control at 500 g/ha [4, 7]	pest or weed control at 500 g/ha (Eleusine indica (ELEIN); [7])	pest or weed control at 500 g/ha [5, 7]	pest or weed control at 500 g/ha [6, 7]	pest or weed control at 500 g/ha (Lolium perenne (LOLPE); [7])	also measured
O=C(C[n+]1ccc(-c2ncccn2)cn1)Nc1nnn[n-]1 [Compound A7]	50%	30%	30%	30%	90%	30%	20%	90%	10%	–
O=C(C[n+]1ccc(-c2ncccn2)cn1)Nc1nncs1 [Compound A5]	20%	20%	20%	70%	100%	70%	50%	30%	0%	–
Oc1cc(C[n+]2ccc(-c3ncccn3)cn2)on1 [Compound A9, 5-[(4-pyrimidin-2-ylpyridazin-1-ium-1-yl)methyl]isoxazol-3-ol 2,2,2-trifluoroacetate]	20%	20%	30%	40%	20%	20%	30%	40%	10%	–
O=S(=O)(CC[n+]1ccc(-c2ncccn2)cn1)c1cnn[nH]1 [Compound A8, 4-pyrimidin-2-yl-1-[2-(1H-triazol-5-ylsulfonyl)ethyl]pyridazin-1-ium 2,2,2-trifluoroacetate]	–	–	–	–	–	–	–	–	–	pest or weed control at 130 g/ha (Setaria faberi (SETFA); [8]): 50%; pest or weed control at 130 g/ha [1, 8]: 20%; pest or weed control at 130 g/ha [2, 8]: 70%; pest or weed control at 130 g/ha [4, 8]: 60%; pest or weed control at 130 g/ha (Eleusine indica (ELEIN); [8]): 50%; pest or weed control at 130 g/ha [5, 8]: 40%; pest or weed control at 130 g/ha [6, 8]: 0%; pest or weed control at 130 g/ha (Lolium perenne (LOLPE); [8]): 0%
Cc1cc(O)c(C(=O)C[n+]2ccc(-c3ncccn3)cn2)c(=O)o1 [Compound A2, 4-hydroxy-6-methyl-3-[2-(4-pyrimidin-2-ylpyridazin-1-ium-1-yl)acetyl]pyran-2-one trifluoroacetate]	20%	10%	70%	30%	90%	70%	20%	0%	10%	–
Cc1nnc(NC(=O)C[n+]2ccc(-c3ncccn3)cn2)s1 [Compound A3]	0%	–	–	0%	50%	0%	10%	30%	0%	–
Cn1nnnc1NC(=O)C[n+]1ccc(-c2ncccn2)cn1 [Compound A6]	30%	40%	80%	30%	90%	20%	30%	90%	0%	–
O=C(C[n+]1ccc(-c2ncccn2)cn1)Nc1nccs1 [Compound A4]	20%	10%	100%	10%	70%	80%	0%	60%	0%	–
O=C1NC(=O)C(CC[n+]2ccc(-c3ncccn3)cn2)S1 (stereo not drawn) [Compound A1, 5-[2-(4-pyrimidin-2-ylpyridazin-1-ium-1-yl)ethyl]thiazolidine-2,4-dione trifluoroacetate]	–	–	–	–	–	–	–	–	–	pest or weed control at 500 g/ha (Setaria faberi (SETFA)): 60%; pest or weed control at 500 g/ha [1]: 50%; pest or weed control at 500 g/ha [2]: 50%; pest or weed control at 500 g/ha [3]: 60%; pest or weed control at 500 g/ha [4]: 90%; pest or weed control at 500 g/ha (Eleusine indica (ELEIN)): 70%; pest or weed control at 500 g/ha [5]: 50%; pest or weed control at 500 g/ha [6]: 30%; pest or weed control at 500 g/ha (Lolium perenne (LOLPE)): 40%
